Results on five compounds are retold here after EP0325279A1, “Dehydrocholecalciferol derivatives” (F. HOFFMANN-LA ROCHE AG, priority 1988, dated 1989).

Several values for one entry are separate records, joined by “and”; a condition that tells them apart may be missing. Identical values can stand only once.

Type in all cases: cell-based
For assay [1], the system named is gezüchteten menschlichen Keratinocyten. Nature of the assay: Morphological differentiation of cultured human keratinocytes (cell counts by cell type).
The subject of assay [2] is menschlicher promyelocytischer Tumorzellen HL-60. Briefly: Antiproliferative (AP) effect on HL-60 cells. Conditions: for IC50: Homo sapiens, concentration that reduces the cell number by 50%, read-out: ID50 (the source's name). The source says: (§1) Zum Nachweis der Aktivität der Verbindungen der Formel I als Mittel zur Behandlung von neoplastischen Krankheiten wurden die antiproliferativen (AP) und die Differenzierung induzierenden Effekte (DI) der Verbindungen A bis F sowie die Anzahl menschlicher promyelocytischer Tumorzellen HL-60 ermittelt. In Tabelle 6 ist der AP Effekt als prozentuale Reduktion der Anzahl Zellen und als Konzentration ID₅₀, die die Zellenanzahl um 50% reduziert, angegeben. Der DI Effekt ist angegeben als Prozentsatz der differenzierten Zellen und als Konzentration ED₅₀ der Verbindungen, die eine 50%ige Differenzierung der Zellen bewirkt.

Assay [3] shares this test system. Briefly: Differentiation-inducing (DI) effect on HL-60 cells. Conditions: for EC50: Homo sapiens, concentration that causes 50% differentiation of the cells, read-out: ED50 (the source's name).
Text: as §1

The mark [4] stands for this setting: Konzentration 0.1 (head prints x10 M).
The mark [5] stands for this setting: Konzentration 1 (head prints x10 M).
Where [6] appears, read: Konzentration 10 (head prints x10 M).
[7] abbreviates: Konzentration 100 (head prints x10 M).
The mark [8] stands for this setting: Konzentration 1000 (head prints x10 M).
Where [9] appears, read: Konzentration 0.01 (head prints x10 M).

`C=C1CC[C@H](O)C/C1=C/C=C1\CCC[C@]2(C)C([C@H](C)CCCC(C)(C)O)=CC[C@@H]12` [Verbindung B, 25-Hydroxy-16-dehydrocholecalciferol]: the “Anzahl Zellen (x10⁴): Basalzellen” value is 15±5 x10⁴ in assay [1] (Dosis 10⁻¹⁰ M), 74±3 x10⁴ in assay [1] (Dosis 10⁻⁶ M) and 109±2 x10⁴ in assay [1] (Dosis 10⁻⁸ M). Besides, the “Anzahl Zellen (x10⁴): Gesamtanzahl” value is given as 133±6 x10⁴ in assay [1] (Dosis 10⁻¹⁰ M), 104±4 x10⁴ in assay [1] (Dosis 10⁻⁶ M) and 131±4 x10⁴ in assay [1] (Dosis 10⁻⁸ M). Further, the “Anzahl Zellen (x10⁴): Plattenepithelzellen” value in assay [1] (Dosis 10⁻¹⁰ M) is 18±1 x10⁴; in assay [1] (Dosis 10⁻⁶ M), 30±1 x10⁴; in assay [1] (Dosis 10⁻⁸ M) it was 22±2 x10⁴. Further, the “Anzahl Zellen (x10⁴): verhornte Plattenepithelzellen” value in assay [1] (Dosis 10⁻¹⁰ M) was 25±1 x10⁴; in assay [1] (Dosis 10⁻⁶ M), 33±1 x10⁴; in assay [1] (Dosis 10⁻⁸ M), 29±2 x10⁴. Besides, the IC50 in assay [2] was found to be 350 nM. The “% Reduktion der Anzahl Zellen” value in assay [2] (setting [4]) came to 10%; in assay [2] (setting [5]) it was 8%; in assay [2] (setting [6]) it was 14%; in assay [2] (setting [7]) it was 82%; in assay [2] (setting [8]), 95%. In addition, the EC50 in assay [3] came to 320 nM. In addition, the “Differenzierte Zellen (%)” value in assay [3] (setting [4]) was found to be 5%; in assay [3] (setting [5]), 4%; in assay [3] (setting [6]), 6%; in assay [3] (setting [7]), 93%; in assay [3] (setting [8]), 95%.

Consider `C=C1/C(=C\C=C2/CCC[C@]3(C)C([C@H](C)C/C=C/C(C)(C)O)=CC[C@@H]23)C[C@@H](O)C[C@@H]1O` [Verbindung C, 1,25-Dihydroxy-16,23E-bisdehydrocholecalciferol], for which the “Anzahl Zellen (x10⁴): Basalzellen” value in assay [1] (Dosis 10⁻¹⁰ M) is 92±2 x10⁴; in assay [1] (Dosis 10⁻⁶ M) it was 54±6 x10⁴; in assay [1] (Dosis 10⁻⁸ M), 80±2 x10⁴. Moreover, the “Anzahl Zellen (x10⁴): Gesamtanzahl” value in assay [1] (Dosis 10⁻¹⁰ M) is 117±4 x10⁴; in assay [1] (Dosis 10⁻⁶ M) it was 80±7 x10⁴; in assay [1] (Dosis 10⁻⁸ M), 108±3 x10⁴. Also, the “Anzahl Zellen (x10⁴): Plattenepithelzellen” value in assay [1] (Dosis 10⁻¹⁰ M) is recorded as 25±2 x10⁴; in assay [1] (Dosis 10⁻⁶ M) it was 26±1 x10⁴; in assay [1] (Dosis 10⁻⁸ M) it was 28±1 x10⁴. Moreover, the figures for the “Anzahl Zellen (x10⁴): verhornte Plattenepithelzellen” value in assay [1] (Dosis 10⁻¹⁰ M), in assay [1] (Dosis 10⁻⁶ M) and in assay [1] (Dosis 10⁻⁸ M) were 103±6 x10⁴, 153±1 x10⁴ and 128±3 x10⁴, respectively. Also, in assay [2], the IC50 is 3 nM. In addition, the “% Reduktion der Anzahl Zellen” value in assay [2] (setting [9]) came to 18%; in assay [2] (setting [4]) it was 20%; in assay [2] (setting [5]) it was 81%; in assay [2] (setting [6]) it was 85%; in assay [2] (setting [7]), 86%. Also, in assay [3], the EC50 was 3 nM. The “Differenzierte Zellen (%)” value is 3% in assay [3] (setting [9]); 19% in assay [3] (setting [4]); 92% in assay [3] (setting [5]); 97% in assay [3] (setting [6]); 99% in assay [3] (setting [7]).

As to `C=C1CC[C@H](O)C/C1=C/C=C1\CCC[C@]2(C)C([C@H](C)C/C=C/C(C)(C)O)=CC[C@@H]12` [Verbindung D, 25-Hydroxy-16,23E-bisdehydrocholecalciferol], the “Anzahl Zellen (x10⁴): Basalzellen” value was 93±6 x10⁴ in assay [1] (Dosis 10⁻¹⁰ M), 68±1 x10⁴ in assay [1] (Dosis 10⁻⁶ M) and 86±3 x10⁴ in assay [1] (Dosis 10⁻⁸ M). Moreover, the “Anzahl Zellen (x10⁴): Gesamtanzahl” value in assay [1] (Dosis 10⁻¹⁰ M) was 113±7 x10⁴; in assay [1] (Dosis 10⁻⁶ M), 94±3 x10⁴; in assay [1] (Dosis 10⁻⁸ M), 111±7 x10⁴. In addition, the entries for the “Anzahl Zellen (x10⁴): Plattenepithelzellen” value in assay [1] (Dosis 10⁻¹⁰ M), in assay [1] (Dosis 10⁻⁶ M) and in assay [1] (Dosis 10⁻⁸ M) were 20±1 x10⁴, 26±2 x10⁴ and 25±2 x10⁴, respectively. Besides, the “Anzahl Zellen (x10⁴): verhornte Plattenepithelzellen” value was determined as 104±10 x10⁴ in assay [1] (Dosis 10⁻¹⁰ M), 144±7 x10⁴ in assay [1] (Dosis 10⁻⁶ M) and 128±5 x10⁴ in assay [1] (Dosis 10⁻⁸ M). In addition, the IC50 in assay [2] amounted to 1500 nM. Also, the “% Reduktion der Anzahl Zellen” value came out at 12% in assay [2] (setting [4]); 12% in assay [2] (setting [5]); 17% in assay [2] (setting [6]); 46% in assay [2] (setting [7]); 95% in assay [2] (setting [8]). The EC50 in assay [3] was found to be 2000 nM. For the same compound, the “Differenzierte Zellen (%)” value is on record as 1% in assay [3] (setting [4]); 2% in assay [3] (setting [5]); 17% in assay [3] (setting [6]); 31% in assay [3] (setting [7]); 97% in assay [3] (setting [8]).

For the compound `C=C1CC[C@H](O)C/C1=C/C=C1\CCC[C@]2(C)C([C@H](C)CC#CC(C)(C)O)=CC[C@@H]12` [Verbindung F, 25-Hydroxy-16-dehydro-23-didehydrocholecalciferol], the “Anzahl Zellen (x10⁴): Basalzellen” value worked out at 81±3 x10⁴ in assay [1] (Dosis 10⁻¹⁰ M), 55±2 x10⁴ in assay [1] (Dosis 10⁻⁶ M) and 67±2 x10⁴ in assay [1] (Dosis 10⁻⁸ M). Further, the entries for the “Anzahl Zellen (x10⁴): Gesamtanzahl” value in assay [1] (Dosis 10⁻¹⁰ M), in assay [1] (Dosis 10⁻⁶ M) and in assay [1] (Dosis 10⁻⁸ M) were 103±5 x10⁴, 84±4 x10⁴ and 97±3 x10⁴, respectively. The figures for the “Anzahl Zellen (x10⁴): Plattenepithelzellen” value in assay [1] (Dosis 10⁻¹⁰ M), in assay [1] (Dosis 10⁻⁶ M) and in assay [1] (Dosis 10⁻⁸ M) were 22±2 x10⁴, 29±1 x10⁴ and 29±1 x10⁴, respectively. Besides, the “Anzahl Zellen (x10⁴): verhornte Plattenepithelzellen” value in assay [1] (Dosis 10⁻¹⁰ M) is reported as 103±4 x10⁴; in assay [1] (Dosis 10⁻⁶ M), 137±7 x10⁴; in assay [1] (Dosis 10⁻⁸ M), 121±6 x10⁴. In assay [2], the IC50 was found to be 700 nM. In addition, the “% Reduktion der Anzahl Zellen” value in assay [2] (setting [4]) is reported as 13%; in assay [2] (setting [5]), 10%; in assay [2] (setting [6]), 8%; in assay [2] (setting [7]), 58%; in assay [2] (setting [8]), 95%. In assay [3], the EC50 turned out to be 700 nM. For the same compound, the “Differenzierte Zellen (%)” value in assay [3] (setting [4]) was 4%; in assay [3] (setting [5]) it was 12%; in assay [3] (setting [6]) it was 21%; in assay [3] (setting [7]), 55%; in assay [3] (setting [8]), 91%.

For `C=C1/C(=C\C=C2/CCC[C@]3(C)[C@@H]([C@H](C)CCCC(C)(C)O)CC[C@@H]23)C[C@@H](O)C[C@@H]1O` [Verbindung X, 1,25-Dihydroxychalecalciferol, reference compound], the “Anzahl Zellen (x10⁴): Basalzellen” value in assay [1] (Dosis 10⁻¹⁰ M) is 103±2 x10⁴ and 95±8 x10⁴ and 86±6 x10⁴; in assay [1] (Dosis 10⁻⁶ M) it was 64±6 x10⁴ and 57±4 x10⁴ and 51±5 x10⁴; in assay [1] (Dosis 10⁻⁸ M), 89±2 x10⁴ and 75±8 x10⁴ and 61±5 x10⁴. In addition, the “Anzahl Zellen (x10⁴): Gesamtanzahl” value was 122±4 x10⁴ and 116±9 x10⁴ and 106±7 x10⁴ in assay [1] (Dosis 10⁻¹⁰ M); 95±7 x10⁴ and 83±5 x10⁴ and 73±7 x10⁴ in assay [1] (Dosis 10⁻⁶ M); 112±6 x10⁴ and 101±10 x10⁴ and 84±8 x10⁴ in assay [1] (Dosis 10⁻⁸ M). For the same compound, the “Anzahl Zellen (x10⁴): Plattenepithelzellen” value was 19±2 x10⁴ and 21±1 x10⁴ and 18±1 x10⁴ in assay [1] (Dosis 10⁻¹⁰ M); 31±1 x10⁴ and 26±1 x10⁴ and 22±2 x10⁴ in assay [1] (Dosis 10⁻⁶ M); 23±4 x10⁴ and 26±2 x10⁴ and 23±3 x10⁴ in assay [1] (Dosis 10⁻⁸ M). For the same compound, in assay [2], the IC50 amounted to 20 nM. Further, the “% Reduktion der Anzahl Zellen” value was 6% in assay [2] (setting [9]); 5% in assay [2] (setting [4]); 16% in assay [2] (setting [5]); 66% in assay [2] (setting [6]); 84% in assay [2] (setting [7]). The EC50 in assay [3] was 20 nM. Also, the “Differenzierte Zellen (%)” value in assay [3] (setting [9]) is on record as 3%; in assay [3] (setting [4]), 11%; in assay [3] (setting [5]) it was 19%; in assay [3] (setting [6]) it was 68%; in assay [3] (setting [7]) it was 98%.
